Results: US8532742B2, “System and method for simultaneous 3DPR device tracking and imaging under MR-guidance for therapeutic endovascular interventions” (Wisconsin Alumni Research Foundation, priority 2006, dated 2013)

Assays:
[1] = Diffusion of a fluorescent probe in swollen gelatin gel by FRAP; assay type: physicochemical; details: coating thickness 60 μm, diffusion coefficient 9×10-12 m2s-1
Description: To assess the stability of DTPA[Gd(III)] in the gelatin coating, the diffusion of a fluorescence probe in gelatin was studied by the technique of fluorescence recovery after photobleaching (FRAP). The instrument and data analysis scheme are described in Kim, S. H. and Yu, H., J. Phys. Chem. 1992, 96, 4034, which is hereby fully incorporated by reference. Fluorescein was used as the fluorescence probe due, in part, to its molecular size being roughly the same as that of DTPA[Gd(III)]. The focus of the study was to examine the possible retardation effects of gelatin concentration and cross-link density on the diffusion, which was determined at room temperature, i.e., below the gel point of gelatin. The diffusion of fluorescein probe slows down with the increase of gelatin concentration. The diffusion coefficient decreases from 1.5×10-10 to 9×10-12 […]-1 when the concentration of gelatin increases from 9% to 40%. […] Accordingly, the probe diffusion is more likely controlled by the concentration of gelatin rather than the cross-link density. On the other hand, the cross-link density may determine the swelling ratio of gelatin, i.e., the concentration of gelatin in aqueous solution. […]

[2] = MR visibility test of gelatin/DTPA[Gd(III)] coating on PE rod in saline and yogurt (Example 14); details: soaked in water for 12 hours before MRI test
Method: Samples having the above formulations were transferred to a glass tube and kept in a water bath at 35° C. A bare PE rod (5 cm in length) was then dipped into the solution, and then removed. The rod was then cooled to room temperature to allow chill-setting of the gelatin solution and to form the coating on the rod surface. The same procedure was repeated to overcoat additional layers of gel. The final dry thickness of gel-coating was about 60 μm.
The gelatin coatings were dried in air while being chemically cross-linked by BVSM. The dried and cross-linked samples were then soaked in distilled water for 12 hours. Soaking each sample in distilled water may remove the DTPA[Gd(III)] that was not physically or chemically constrained by the cross-linked network of gelatin overcoat. Because the DTPA[Gd(III)] complexes were not chemically linked to the gelatin chains, most of them would be expected to diffuse out of the coating when soaked in water, whereas some of DTPA[Gd(III)] may be confined by the crystal domains in gelatin or by hydrogen bonding between gelatin chains and DTPA. In any event, after the soaking, the gelatin coating was dried again in air before MRI test.
The MR visibility of the samples prepared as outlined above, was tested in two media: saline and yogurt. […]

O=C(O)CN(CCN(CC(=O)O)CC(=O)O)CCN(CC(=O)O)CC(=O)O [DTPA, diethylenetriaminepentaacetic acid]
time to diffuse out of the gelatin coating [1]: about 67 seconds

O=C([O-])CN(CCN(CC(=O)[O-])CC(=O)O)CCN(CC(=O)[O-])CC(=O)O.[Gd+3] [DTPA[Gd(III)], gadolinium-diethylene triamine pentaacetic acid]
retention of complex in gelatin gel after soaking [2]: some fraction of DTPA[Gd(III)] remained in the gel
